Test results taken from patent publication US8138350B2, “N′-cyano-N-halogenalkylimidamide derivatives” (Bayer Cropscience AG, priority 2006, dated 2012).

How the values were obtained:
Format in all cases: in vivo
Musca domestica = Musca domestica test; conditions: 100 ppm; treated sponge; after 2 d; adult flies; comparative example
Description: (§1) Solvent: Dimethyl sulphoxide
To produce a suitable preparation of active compound, 1 part by weight of active compound is mixed with the stated amount of water, and the concentrate is diluted with water to the desired concentration.
Containers containing a sponge treated with the active compound preparation of the desired concentration are populated with adult Musca domestica.
After the desired period of time, the kill in % is determined. 100% means that all flies have been killed; 0% means that none of the flies have been killed.

Phaedon cochleariae = experiment: Phaedon test (spray treatment); conditions: 20 g/ha; after 7 d; comparative example
Description: Phaedon Test (Spray Treatment)
To produce a suitable preparation of active compound, 1 part by weight of active compound is mixed with the stated amounts of solvents and emulsifier, and the concentrate is diluted with emulsifier-containing water to the desired concentration.
After the desired period of time, the activity in % is determined. 100% means that all beetle larvae have been killed, 0% means that none of the beetle larvae have been killed.
In this test, for example, the following compounds of the Preparation Examples show an activity of ≧80% at an application rate of 500 g/ha: […]

Ctenocephalides felis = experiment: Ctenocephalides felis; oral; conditions: 100 ppm in citrated cattle blood, after 2 d, adult fleas, comparative example
Description: Ctenocephalides Felis; Oral
as §1
To produce a suitable preparation of active compound, 1 part by weight of active compound is mixed with the stated amount of […]. Part of the concentrate is diluted with citrated cattle blood, and the desired concentration is prepared.
20 unfed adult fleas (Ctenocephalides felis) are placed into a chamber whose top and bottom ends are closed with gauze. A metal cylinder whose bottom end is closed with parafilm is placed onto the chamber. The cylinder contains the blood/active compound preparation, which can be taken up by the fleas through the parafilm membrane. The blood is warmed to 37° C., but the flea chamber is at room temperature.
After the desired period of time, the kill in % is determined. 100% means that all fleas have been killed; 0% means that none of the fleas have been killed.

Structure (SMILES)	Musca domestica % 2 d (kill) (Musca domestica)	Phaedon test spray treatment % 7 d (Phaedon cochleariae)	Ctenocephalides felis % 2 d (kill) (Ctenocephalides felis)
CCN(Cc1ccc(Cl)nc1)C(C)=NC#N	0%	0%	30%
CC(=NC#N)N(Cc1ccc(Cl)nc1)CC(F)F [I-1, N-[(6-chloropyridin-3-yl)methyl]-N′-cyano-N-(2,2-difluoroethyl)ethanimidamide]	100%	100%	70%
